The text below walks through data of patent publication EP1721614A1, “Epirubicine hydrochloride for treating hepatitis C virus” (Institut National de la Santé et de la Recherche Médicale …, priority 2005, dated 2006).

Counter-ions that a name gives are not always drawn.

For series [1], the system named is HCV subgenomic replicon stably transfected into Huh7 cell lines (clone BM4.5). Briefly: anti-HCV activity in HCV subgenomic replicon system (Northern blot of HCV RNA, normalised to actin). It counts as cell-based, hepatitis C virus (HCV). As for the experimental part:
The potential antiviral (anti HCV) activity of epirubicin hydrochloride was tested in in vitro cell culture model using the HCV subgenomic replicon stably transfected into Huh7 cell lines (clone BM4.5) (Ju-Tao Gao et al., J Virol. 2001).
Huh7 cells containing the HCV replicon were grown in cell culture medium in presence of varying concentration of epirubicin. The media and drug were changed everyday for 5 days. After 5 days of treatment the cells were lysed and total RNA extracted. The isolated RNA was then assayed for presence of HCV replication by Northern Blot analysis, using a HCV probe targeting the NS5B region of HCV.
The cell lines were treated everyday with epirubicin from concentration of 20 nM to 2 nM for 5 days and at the end of treatment RNA from the treated cells were isolated. The total RNA was then probed with a HCV specific probe using Northern blot analysis to detect the HCV RNA. The resulting blot was then exposed to phosphorimager densitometry and the viral replication quantified.

Series [2] is described as follows: in vitro. To be noted: human, huh7 cells.
The conditions of series [3]: cited from earlier work.

A word on the CC50: it is the concentration at which the toxic effect on the cells reaches its halfway point. A low value points to harm at low concentration. Regarding `COc1cccc2c1C(=O)c1c(O)c3c(c(O)c1C2=O)C[C@@](O)(C(=O)CO)C[C@@H]3O[C@H]1C[C@H](N)[C@@H](O)[C@H](C)O1` [epirubicin hydrochloride, 7-O-(3'-amino-2',3',6'-trideoxy-α,β-L-arabinohexpyranosyl)-adriamycinone hydro-chloride], in series [1] (CC50 in Huh7 cells versus IC50 in HCV replicon system), the selectivity index is reported as 25. The IC50 in series [1] (Hepatitis C virus, Huh-7, 120 h, Huh7 replicon cells, 5 days of treatment, Figure 2, read-out: 50% inhibitory concentration (IC50), anti-HCV activity measured in HCV replicon system) lay within 3 to 5 nM. The same molecule registered a CC50 in series [2] above 100 nM. Also, the maximum cumulative dose in series [3] (antitumor therapy in man) is 900 - 1000 mg/m^2. The “"safe" dose (total cumulative dose, Kaplan-Meier plot of cumulative probability of developing congestive heart failure)” value in series [3] (man) was 100 - 150 mg/m^2.
